Legend:
[1] = tested on: T1, Escherichia coli ATCC 25922; test: microbe, parasite or virus in culture; conditions: ATCC25922, read-out: MIC (ug/ml) second column
T1 construct: ATCC 25922

S. aureus ATP synthase = biological target: T2, S. aureus ATP synthase (Staphylococcus aureus, UniProt Q99SF0); test: ATP production by membrane vesicles, luciferase luminescence; format: biochemical; conditions: […] NADH, 1 mM ADP, 10 mM potassium phosphate; 30 min preincubation, 60 min reaction
T2 construct: gene atpE
From the text: ATP production by membrane vesicles, luciferase luminescence on S. aureus ATP synthase

E. coli ATP synthase [2] = biological target: T3, E. coli ATP synthase (Escherichia coli, UniProt P68699); test: as above; format: biochemical; conditions: […] NADH, 1 mM ADP, 10 mM potassium phosphate; 30 min preincubation, 60 min reaction
T3 construct: gene atpE
From the text: ATP production by membrane vesicles, luciferase luminescence on E. coli ATP synthase

E. coli ATP synthase [3] = biological target: T3, E. coli ATP synthase; test: ATP synthesis kinetics, membrane vesicles, luciferase luminescence; format: biochemical; conditions: ADP varied 0.05-1 mM, NADH-driven, pre-exposure 0-10 min
E. coli MC4100 lptD4213 = tested on: T4, E. coli MC4100 lptD4213; test: microbe, parasite or virus in culture; conditions: Escherichia coli, MC4100LPTD4213, read-out: MIC
T4 construct: MC4100 lptD4213 membrane-compromised

Escherichia coli ec305 = tested on: T5, Escherichia coli ec305; test: microbe, parasite or virus in culture; design: species or system bacteria; CLSI broth microdilution MIC, no visible growth; conditions: EC305, read-out: Table 3 TM-184 MIC
T5 construct: ec305

[4] = tested on: T6, Escherichia coli 70122 CW-2007; test: microbe, parasite or virus in culture; design: species or system bacteria; CLSI broth microdilution MIC, no visible growth; conditions: 70122CW2007, read-out: Table 3 TM-184 MIC
T6 construct: 70122 CW-2007

[5] = tested on: T7, Escherichia coli ATCC BAA2471; test: microbe, parasite or virus in culture; design: species or system bacteria; CLSI broth microdilution MIC, no visible growth; conditions: ATCCBAA2471, read-out: Table 3 TM-184 MIC
T7 construct: ATCC BAA-2471

Escherichia coli ec302 = tested on: T8, Escherichia coli ec302; test: microbe, parasite or virus in culture; design: species or system bacteria; CLSI broth microdilution MIC, no visible growth; conditions: EC302, read-out: Table 3 TM-184 MIC
T8 construct: ec302

Escherichia coli ec308 = tested on: T9, Escherichia coli ec308; test: microbe, parasite or virus in culture; design: species or system bacteria; CLSI broth microdilution MIC, no visible growth; conditions: EC308, read-out: Table 3 TM-184 MIC
T9 construct: ec308

[6] = tested on: T10, Escherichia coli ATCC 35218; test: microbe, parasite or virus in culture; design: species or system bacteria; CLSI broth microdilution MIC, no visible growth; conditions: ATCC35218, read-out: Table 3 TM-184 MIC
T10 construct: ATCC 35218

[7] = tested on: T11, Escherichia coli 95882 CW-2011; test: microbe, parasite or virus in culture; design: species or system bacteria; CLSI broth microdilution MIC, no visible growth; conditions: 95882CW2011, read-out: Table 3 TM-184 MIC
T11 construct: 95882 CW-2011

Escherichia coli ec309 = tested on: T12, Escherichia coli ec309; test: microbe, parasite or virus in culture; design: species or system bacteria; CLSI broth microdilution MIC, no visible growth; conditions: EC309, read-out: Table 3 TM-184 MIC
T12 construct: ec309

Escherichia coli ec310 = tested on: T13, Escherichia coli ec310; test: microbe, parasite or virus in culture; design: species or system bacteria; CLSI broth microdilution MIC, no visible growth; conditions: EC310, read-out: Table 3 TM-184 MIC
T13 construct: ec310

[8] = tested on: T14, S. aureus ATCC 29740 (Newbould); test: microbe, parasite or virus in culture; design: species or system bacteria; CLSI broth microdilution MIC, no visible growth; conditions: Staphylococcus aureus, ATCC29740, read-out: TM-184 MIC
T14 construct: ATCC 29740 (Newbould)

S. aureus ATCC 29740hemB = test: microbe, parasite or virus in culture; conditions: Staphylococcus aureus, ATCC29740HEMB, read-out: MIC
E. coli ATCC 25922 = tested on: T15, E. coli ATCC 25922; test: microbe, parasite or virus in culture; design: species or system bacteria; CLSI broth microdilution MIC, no visible growth; conditions: Escherichia coli, ATCC25922, read-out: TM-184 MIC
T15 construct: ATCC 25922

E. coli MC4100 WT = tested on: T16, E. coli MC4100 WT; test: microbe, parasite or virus in culture; design: species or system bacteria; CLSI broth microdilution MIC, no visible growth; conditions: Escherichia coli, MC4100WT, read-out: TM-184 MIC
T16 construct: MC4100 (ATCC 35695)

[9] = tested on: T17, Citrobacterfreundii ATCC 8090; test: organism not typed; design: species or system bacteria; CLSI broth microdilution MIC, no visible growth; conditions: read-out: Table 5 TM-184 MIC
T17 construct: ATCC 8090

E. coli MC4100 acrAB = tested on: T18, E. coli MC4100 acrAB; test: microbe, parasite or virus in culture; conditions: Escherichia coli, MC4100ACRAB, read-out: MIC
T18 construct: MC4100 acrAB efflux-deficient

`C[C@H]1CC[C@]2(NC1)O[C@H]1C[C@H]3[C@@H]4CC[C@H]5CC(NC[C@H](N)Cc6ccc(I)cc6)CC[C@]5(C)[C@H]4CC[C@]3(C)[C@H]1[C@@H]2C` (mixture of isomers) [TM-184] gave an MIC [1] of 4 µg/mL, an IC50 (S. aureus ATP synthase) of 0.7 ± 0.33 µM and an IC50 (E. coli ATP synthase [2]) of 1.57 ± 0.17 µM. It also gave a Ki (E. coli ATP synthase [3]) of 0.8 to 1.3 µM, an MIC (E. coli MC4100 lptD4213) of 2 µg/mL and an MIC (Escherichia coli ec305) of 2 µg/mL. It also gave an MIC [4] of 16 µg/mL, an MIC [5] of 16 µg/mL and an MIC (Escherichia coli ec302) of 16 µg/mL. The MIC (Escherichia coli ec308) was 4 µg/mL, the MIC [6] was 16 µg/mL and the MIC [7] was 16 µg/mL. It also gave an MIC (Escherichia coli ec309) of 16 µg/mL, an MIC (Escherichia coli ec310) of 16 µg/mL and an MIC [8] of 2 µg/mL. It also gave an MIC (S. aureus ATCC 29740hemB) of at most 0.25 µg/mL, an MIC (E. coli ATCC 25922) of 4 µg/mL and an MIC (E. coli MC4100 WT) of 8 µg/mL. It also gave an MIC [9] of 8 µg/mL and an MIC (E. coli MC4100 acrAB) of 4 µg/mL.
Compound `O=[N+]([O-])c1ccc(Cl)c2nonc12` [4-chloro-7-nitrobenzofurazan, reference compound] has a Ki (E. coli ATP synthase [3]; positive control, covalent) of 1.8 µM.

— doi:10.1101/2025.08.21.671483v1, “In vitro and in vivo activity profiles of broad-spectrum bacterial ATP synthase inhibitors” (biorxiv, 2025)
